From article PMC11167047 (Cell Death Discovery, 2024)

Experiments:
HeLa cells = test: EdU incorporation by microscopy; type: cell-based, human; settings: 24 h, non-lethal dose (IC25)
Protocol: The EdU-assay, utilizing the EdU-click 488 kit from Baseclick GmbH (#BCK-TCell-FC488) was performed according to manufacturer’s instructions. The EdU-assay is employed to measure the incorporation of 5-ethynyl-2’-deoxyuridine (EdU) into DNA, providing a means to assess cell proliferation. Cell proliferation involves the synthesis of new DNA during the S phase of the cell cycle. When cells are exposed to 5-EdU, they incorporate the compound into their DNA at thymidine bases during S phase. A fluorophore-labeled azide reacts with the incorporated EdU, enabling its detection through microscopy (sigmaaldrich.com). The experimental process involves seeding cells and allowing them to grow to the desired density, applying the indicated treatments, and subsequently adding EdU to the media. After fixation and permeabilization, the EdU detection, along with DAPI-stained nuclei, is carried out using fluorescence microscopy.

KOPTK1 = settings: read-out: IC50 (KOPTK1); cytotoxicity, 24 h
Protocol: The resazurin reduction assay, which is also known as AlamarBlue® assay, was used for the determination of cell viability in all cytotoxicity determinations shown in the present work, as previously described [22]. Briefly, cells were seeded at a specific density depending on the incubation time (24 h: 1 × 10^6 cells/ml) in a 96-well plate and incubated with increasing compound concentrations (0.01–30 µM). After the specified treatment time, resazurin (Sigma, #R7017) was added to a final concentration of 40 µM. […] The viability of control cells was set to 100% and all other values were normalized to the control condition, the dose-response curves were then fitted with Prism v7.01 (GraphPad software, La Jolla, CA, USA). The reduction of resazurin to resorufin is proportional to aerobic respiration; therefore, it is used as a measure for the cell viability and cytotoxicity of a tested compound.

[1] = tested on: RNA polymerase II phosphorylation at Ser2; test: immunoblotting of p-Ser2 RNA polymerase II in Ramos cells; type: cell-based, human; settings: 0.1 and 1 µM (R547 1 µM), 4-24 h
Protocol: Cells were seeded at a density of 2 × 10^6 cells, treated as specified and harvested by centrifugation at 3000 rpm for 5 min, followed by freezing in liquid nitrogen. The cell pellets were thawed on ice and quick-frozen and defrozen in liquid nitrogen for three times, then lysed on ice in lysis buffer (20 mM Tris-HCl, 150 mM NaCl, 1% v/v Triton X-100, 0.5 mM EDTA, 10 mM NaF, 2.5 mM Na4P2O7, protease inhibitor (Sigma, #P2714)) for 30 min, accompanied by vortexing. Subsequently, centrifugation 13,300 rpm for 15 min purified cell lysates from cell debris. The supernatant was transferred to a new tube and the protein concentration was determined by Bradford assay. The samples were diluted with sample buffer. SDS-Page and Western Blot were conducted in accordance with standard workflows. […] The antibody baths were stored at 4 °C and re-used.
The density of the individual protein band was determined using Image Studio^TM Lite Version 5.2. The density of each protein was divided by the average of all bands of this protein. The ratios of the protein of interest were normalized to the ratio of the respective loading control. To determine the fold change, each normalized ratio was divided by the normalized band of the control line (untreated cells). Fold change is 1 for the control line, n ≥ 2. The results are shown as mean ± standard deviation and were visualized with GraphPad Prism 7.

MAPKAPK3 = target: T1, MAPKAPK3 (Homo sapiens, UniProt Q16644); test: kinome screen (33PanQinase); type: biochemical
T1 construct: purchased Reaction Biology Europe GmbH (formerly ProQinase)
Protocol: (§1) The Kinome Screening was performed by Reaction Biology Europe GmbH (http://reactionbiology.com; Freiburg i. Br., Germany).

FLT3 = target: T2, FLT3 (Homo sapiens, UniProt P36888); test: kinome screen (33PanQinase); type: biochemical
T2 construct: purchased Reaction Biology Europe GmbH (formerly ProQinase)
T2 sequence (P36888 27-993): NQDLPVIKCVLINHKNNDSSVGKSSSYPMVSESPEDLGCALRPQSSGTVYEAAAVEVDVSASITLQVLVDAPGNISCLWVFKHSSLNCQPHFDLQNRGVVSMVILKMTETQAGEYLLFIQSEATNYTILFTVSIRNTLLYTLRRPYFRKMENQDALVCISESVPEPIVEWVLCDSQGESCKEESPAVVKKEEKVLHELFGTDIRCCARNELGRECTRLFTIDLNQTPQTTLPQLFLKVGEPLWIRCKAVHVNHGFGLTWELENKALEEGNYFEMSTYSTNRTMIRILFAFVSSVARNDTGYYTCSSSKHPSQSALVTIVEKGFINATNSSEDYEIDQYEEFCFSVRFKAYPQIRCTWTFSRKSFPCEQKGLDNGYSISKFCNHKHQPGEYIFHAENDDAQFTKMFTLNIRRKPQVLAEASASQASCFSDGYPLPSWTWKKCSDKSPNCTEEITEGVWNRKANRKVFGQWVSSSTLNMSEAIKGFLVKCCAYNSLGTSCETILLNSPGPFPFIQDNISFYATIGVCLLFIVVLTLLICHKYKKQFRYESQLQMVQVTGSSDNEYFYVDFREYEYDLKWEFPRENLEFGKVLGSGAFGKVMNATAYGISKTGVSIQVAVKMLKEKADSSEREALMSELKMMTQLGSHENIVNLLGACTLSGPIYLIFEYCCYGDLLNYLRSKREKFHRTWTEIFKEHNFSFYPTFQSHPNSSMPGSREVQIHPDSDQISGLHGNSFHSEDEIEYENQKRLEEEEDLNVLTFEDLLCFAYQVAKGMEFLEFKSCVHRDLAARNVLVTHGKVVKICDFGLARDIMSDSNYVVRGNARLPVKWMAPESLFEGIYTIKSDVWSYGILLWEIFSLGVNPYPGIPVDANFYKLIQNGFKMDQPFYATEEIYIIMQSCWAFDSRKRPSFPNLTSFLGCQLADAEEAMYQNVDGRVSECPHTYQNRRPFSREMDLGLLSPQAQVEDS
Protocol: as §1

SRPK1 = target: T3, SRPK1 (Homo sapiens, UniProt Q96SB4); test: kinome screen (33PanQinase); type: biochemical
T3 construct: purchased Reaction Biology Europe GmbH (formerly ProQinase)
Protocol: as §1

CSK = target: T4, CSK (Homo sapiens, UniProt P41240); test: kinome screen (33PanQinase); type: biochemical
T4 construct: purchased Reaction Biology Europe GmbH (formerly ProQinase)
Protocol: as §1

Ramos cells = test: cell cycle analysis (Nicoletti assay); type: cell-based, human; settings: 24 h, sublethal dose, with QVD
Protocol: DNA content during cell cycle and hypodiploid apoptotic nuclei were measured by the method of Nicoletti et al.. […] Hypodiploid nuclei were measured in logarithmic mode for apoptosis determination. Flow-cytometry analysis was performed on an LSRFortessa^TM (Becton, Dickinson, Heidelberg, Germany) and data analysis was performed using FlowJo_V10 (BD Biosciences).

T4 sequence (P41240 whole entry): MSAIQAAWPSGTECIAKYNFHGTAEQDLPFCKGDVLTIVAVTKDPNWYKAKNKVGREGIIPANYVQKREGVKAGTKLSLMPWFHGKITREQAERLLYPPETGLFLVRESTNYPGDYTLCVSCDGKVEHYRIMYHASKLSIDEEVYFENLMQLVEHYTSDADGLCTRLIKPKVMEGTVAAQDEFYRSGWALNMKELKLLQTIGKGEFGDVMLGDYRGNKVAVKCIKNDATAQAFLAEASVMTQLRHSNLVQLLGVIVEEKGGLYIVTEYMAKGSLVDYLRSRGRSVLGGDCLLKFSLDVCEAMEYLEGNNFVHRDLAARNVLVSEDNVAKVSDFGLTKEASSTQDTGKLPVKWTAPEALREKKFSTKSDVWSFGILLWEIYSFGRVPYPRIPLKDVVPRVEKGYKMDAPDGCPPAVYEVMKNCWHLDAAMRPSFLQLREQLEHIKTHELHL
T3 sequence (Q96SB4 whole entry): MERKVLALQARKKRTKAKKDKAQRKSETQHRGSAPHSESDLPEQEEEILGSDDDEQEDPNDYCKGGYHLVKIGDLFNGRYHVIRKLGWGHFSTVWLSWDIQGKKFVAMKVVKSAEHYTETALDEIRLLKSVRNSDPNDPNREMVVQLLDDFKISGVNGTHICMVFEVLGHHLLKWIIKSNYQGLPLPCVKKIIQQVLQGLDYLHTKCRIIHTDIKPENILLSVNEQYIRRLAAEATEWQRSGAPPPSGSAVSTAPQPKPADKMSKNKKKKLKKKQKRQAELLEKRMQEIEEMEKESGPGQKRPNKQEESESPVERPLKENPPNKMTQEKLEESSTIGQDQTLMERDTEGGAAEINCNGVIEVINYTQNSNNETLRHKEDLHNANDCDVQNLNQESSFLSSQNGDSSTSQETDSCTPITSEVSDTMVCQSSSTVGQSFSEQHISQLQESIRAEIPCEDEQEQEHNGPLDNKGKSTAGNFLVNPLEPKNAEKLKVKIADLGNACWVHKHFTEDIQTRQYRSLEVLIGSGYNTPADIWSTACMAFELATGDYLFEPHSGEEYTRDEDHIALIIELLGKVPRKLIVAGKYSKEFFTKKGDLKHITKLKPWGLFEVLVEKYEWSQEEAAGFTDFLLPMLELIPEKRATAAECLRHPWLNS
T1 sequence (Q16644 whole entry): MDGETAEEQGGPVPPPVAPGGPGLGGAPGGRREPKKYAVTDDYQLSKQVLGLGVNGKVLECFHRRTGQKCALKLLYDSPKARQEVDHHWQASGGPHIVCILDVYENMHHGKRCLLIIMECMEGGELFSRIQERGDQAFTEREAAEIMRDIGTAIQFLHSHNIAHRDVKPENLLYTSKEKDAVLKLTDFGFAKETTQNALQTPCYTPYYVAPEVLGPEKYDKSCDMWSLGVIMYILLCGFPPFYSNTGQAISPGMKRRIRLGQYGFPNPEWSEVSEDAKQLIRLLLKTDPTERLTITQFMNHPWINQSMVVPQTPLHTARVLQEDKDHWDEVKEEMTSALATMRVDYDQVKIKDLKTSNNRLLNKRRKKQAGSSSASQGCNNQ

For `COc1ccnc2[nH]cc(-c3cc(N)nc(N)c3)c12` [meriolin 16], the “EdU incorporation (proliferation) reduced to” value (HeLa cells) was 10%, the IC50 (KOPTK1) was 10 nM and the “phosphorylation of RNA polymerase II at Ser2” value [1] was “total loss of the phosphorylation at Ser2 within 4 h”. For the same molecule, the residual kinase activity (MAPKAPK3; 0.03 µM) was 99 % of control, the residual kinase activity (MAPKAPK3; 0.3 µM) was 87 % of control and the residual kinase activity (FLT3; 0.03 µM) was 49 % of control. The residual kinase activity (FLT3; 0.3 µM) was 21 % of control, the residual kinase activity (SRPK1; 0.03 µM) was 108 % of control and the residual kinase activity (SRPK1; 0.3 µM) was 99 % of control. For the same molecule, the residual kinase activity (CSK; 0.03 µM) was 114 % of control, the residual kinase activity (CSK; 0.3 µM) was 106 % of control and the “effect on cell cycle phases” value (Ramos cells) was “only a slight shift to G2 phase”.

With `c1ccc(CNc2cc(-c3c[nH]c4ncccc34)ccn2)cc1` [meriolin 36] the “EdU incorporation (proliferation) reduced to” value (HeLa cells) was 10%, the IC50 (KOPTK1) was 1220 nM and the “phosphorylation of RNA polymerase II at Ser2” value [1] was “less pronounced”. The residual kinase activity (MAPKAPK3; 3 µM) was 90 % of control, the residual kinase activity (FLT3; 0.3 µM) was 9 % of control and the residual kinase activity (FLT3; 3 µM) was 2 % of control. For the same molecule, the residual kinase activity (SRPK1; 0.3 µM) was 110 % of control, the residual kinase activity (SRPK1; 3 µM) was 70 % of control and the residual kinase activity (CSK; 0.3 µM) was 116 % of control. The residual kinase activity (CSK; 3 µM) was 71 % of control and the “effect on cell cycle phases” value (Ramos cells) was “only a slight shift to G2 phase”.
